Format in all cases: cell-based
In one assay the test system is Human Cav2.3c (Y1761F). Particulars: 50 µM.
Another assay relates to Human Cav2.3d (Y1761F). To be noted: 50 µM.
A further assay concerns Human Cav2.1 (Q1856E). To be noted: read-out: IBa inhibition; 50 µM.
The next assay relates to Human Cav2.1 (L1852T). Particulars: read-out: IBa inhibition; 50 µM.
Another assay relates to Human Cav2.3d (Y1765F). Particulars: read-out: IBa inhibition; 50 µM.
Assay [1] concerns c-Src / human Cav2.1 channel and GABABR.
Assay [2] concerns c-Src / human Cav2.3c channel and GABABR.

Experimental findings from PMC3971658 (The Journal of General Physiology, 2014) are described below.

Marks after values point to notes of the source that are not given here. Where no end group is shown, it is not given here.

Broadly, the inhibition is the relative decrease from the control value, in per cent.

For the compound `NCC(CC(=O)O)c1ccc(Cl)cc1` (stereo not shown) [Baclofen, baclofen], the IBa inhibition is on record as 14.6 ± 1.8 (8) ^c % with Human Cav2.3c (Y1761F) and 21.9 ± 1.8 (11) ^c % in the assay on Human Cav2.3d (Y1761F). For the same compound, the figures for the inhibition in the assay with Human Cav2.1 (Q1856E), in the assay on Human Cav2.1 (L1852T) and in the assay on Human Cav2.3d (Y1765F) were 47.9%, 50.6% and 28.9%, respectively.
As for “pp60c-Src peptide: phosphorylated synthetic pp60c-Src peptide (521–533) (DYFTSTEPQYQPG; also: phosphorylated, site not given here; UniProt P12931 521-533, looked up, fragment)”, in assay [1], the “baclofen inhibition of IBa with wild-type c-Src overexpression or pp60c-Src peptide” value was “did not affect baclofen inhibition of IBa”. Also, the “effect of pp60c-Src peptide on c-Vc1.1 and baclofen inhibition of IBa” value in assay [2] is listed as “The effect of K295R/Y527F c-Src was recapitulated”.
